From PMC8880313, “Discovery of Novel Andrographolide Derivatives as Antiviral Inhibitors against Human Enterovirus A71” (Pharmaceuticals, 2022) come the findings set out here.

Test [1] has as its system EV-A71 RNA. The test is described as follows: Entry bypass assay (EV-A71 RNA transfection). It counts as cell-based, human enterovirus A71 (EV-A71) strain 41. The settings on record: 12 hpi. As to the method: To confirm this finding, assays to investigate the effect of ZAF-47 on EV-A71 entry into cells were performed. With pre-treatment assay, we first treated the cells with different concentrations of ZAF-47 before subjecting them to EV-A71 infection. The aim was to investigate if ZAF-47 was able to bind to host surface receptors which would prevent the virions from binding and thus blocking viral entry. […] Even at the highest concentration, the reduction in viral titre (0.8 log10 PFU/mL decrease) was not as pronounced as post-treatment and could likely be due to drug toxicity. Thus, it is unlikely that ZAF-47 inhibits EV-A71 infection by binding with host receptors to block viral entry. With co-treatment assay, we first treated EV-A71 virions with ZAF-47 for 30 min before infecting the cells. The aim was to investigate if ZAF-47 was able to bind to viral surface proteins which would prevent the virions from binding to the host receptors and thus blocking viral entry. […] Thus, it is unlikely that ZAF-47 blocks EV-A71 entry into host cells by binding to viral surface proteins. Instead, using entry bypass assay, we were able to deduce that ZAF-47 most likely targets EV-A71 post-entry stages. […]
Seeded 24-well plates, with 1.5 × 10^5 RD cells per well, were incubated overnight at 37 °C with 5% CO2. […] The plates were frozen down at 12 hpi for viral titre quantification using viral plaque assay.

The subject of test [2] is CV-A6. Nature of the test: Post-treatment assay, antiviral spectrum. It counts as cell-based, Coxsackievirus A6. As to the method: (§1) We were also interested in the antiviral potential of ZAF-47 against other Enteroviruses. As such, we performed post-treatment assay on RD cells infected with other Enteroviruses such as CV-A16, CV-A6, Echo7, CV-B5, CV-A24 and EV-D68.
(§2) To determine the inhibitory profiles of the hits, post treatment assay was performed. Seeded 24-well plates, with 1.5 × 10^5 RD cells per well, were incubated overnight at 37 °C with 5% CO2. The seeded cells were infected with EV-A71 (100 µL per well, MOI = 1) for 1 h at 37 °C with 5% CO2 and then rinsed with 1 mL of PBS twice. Different concentrations of the hits were used to treat the infected cells for 12 h at 37 °C with 5% CO2. At 12 hpi, the plates were frozen and thawed for 2 cycles (−80°C; 37 °C) before collection of supernatants to measure the viral titres via viral plaque assay.
(§3) Measurement of the viral titres from collected supernatants was derived from viral plaque assays. To do this, 24-well plates, seeded with 2.4 × 10^5 RD cells per well, were used in plaque assays for EV-A71, EV-D68, Echo7, CV-A6, CV-A16 and CV-A24 while 24-well plates, seeded with 1.2 × 10^5 Vero cells per well, were used in plaque assays for CV-B5. Seeded cells were incubated overnight at 37 °C with 5% CO2. […] Subsequent formation of viral plaques was counted manually to quantify the viral titre in PFU/mL […]

In test [3] the test system is CV-B5. Nature of the test: Post-treatment assay, antiviral spectrum. It counts as cell-based, Coxsackievirus B5. The procedure: as §1, §2, §3
The subject of test [4] is Echo7. The test is described as follows: Post-treatment assay, antiviral spectrum. It counts as cell-based, Echovirus 7 strain Wallace. As to the method: as §1, §2, §3
The test system of test [5] is EV-D68. Nature of the test: Post-treatment assay, antiviral spectrum. It counts as cell-based, Enterovirus D68. The procedure: as §1, §2, §3
Test [6] has as its system EV-A71 Passage 21. Nature of the test: Post-treatment assay on EV-A71 passaged 21 times with ZAF-47 (resistant mutant generation). The class given is cell-based, human enterovirus A71 (EV-A71). The note with it: supernatant from Passage 21, MOI = 1, RD cells. The procedure: Unfortunately, we were unable to obtain any resistant mutants as the viral titre for ZAF-47-treated remained lower than that of the controls at Passage 21. […] As a result, we hypothesize that ZAF-47 possibly targets host factor/s associated with EV-A71 RNA replication which makes it harder to generate resistant mutants.
Seeded 24-well plates, with 1.5 × 10^5 RD cells per well, were incubated overnight at 37 °C with 5% CO2. After which, the cells were subjected to EV-A71 infection (200 µL per well, MOI = 1) for 1 h before treatment with 800 µL of ZAF-47 at final concentration of 10 µM for 12 h at 37 °C with 5% CO2. Treatment with reduced serum DMEM and 0.1% DMSO functioned as negative and vehicle controls respectively. Upon 12 hpi, the supernatant was collected for viral plaque assay as well as to infect (200 µL) another seeded plate.

As a reminder, the IC50 is the concentration that gives 50% inhibition. In the case of `CC(=O)OC[C@]1(C)C(=O)CC[C@@]2(C)C(C/C=C3/C(=O)OC[C@@H]3Oc3cccc4cccnc34)=C(C)CC[C@@H]21` [ZAF-47, (14β)-(8′-Quinolinoxy)-3-ketone-9-dehydro-17-hydro-19-acetoxy–andrographolide], the viral reduction in test [1] (10 µM) is listed as 0.9 log; in test [1] (20 µM), 2.6 log. The viral titre result is reported as “reducing the viral titres of the above-listed enteroviruses significantly” in test [2] (10 µM, CV-A6-infected RD cells); “reducing the viral titres of the above-listed enteroviruses significantly” in test [3] (10 µM, CV-B5-infected RD cells); “reducing the viral titres of the above-listed enteroviruses significantly” in test [4] (10 µM, Echo7-infected RD cells); “reducing the viral titres of the above-listed enteroviruses significantly” in test [5] (10 µM, EV-D68-infected RD cells). The IC50 in test [2] (CVA6, CV-A6, Enterovirus A, drug treatment duration 96 h, RD cells) came out at 3.16 µM; in test [3] (CVB5, CV-B5, Enterovirus B, drug treatment duration 12 h, RD cells), 2.46 µM; in test [4] (Echo7, Enterovirus B, drug treatment duration 12 h, RD cells) it was 6.7 µM; in test [5] (EVD68, EV-D68, Enterovirus D, drug treatment duration 12 h, RD cells), 5.1 µM. Further, the “inhibition of passaged virus” value in test [6] was “still capable of inhibiting the passaged virus dose-dependently”.
